Data on one compound can be found in paper PMC6645578 (ACS Omega, 2017).

Where two headings read alike, the source gives them in different places.

Experiment [1] deals with EstSP1. The experiment in a line: p-nitrophenol release at […] nm, Lineweaver-Burk. Type of experiment: biochemical, Sphingomonas sp. PAMC 26605. The note with it: 40 °C; 0.1-0.5 mM substrate; 3 min; Table 3 and text print 92.5.
Experiment [2] deals with EstSP1. Conditions: 40 °C; 0.1-0.5 mM substrate; 3 min; text prints 247.

In general, Km refers to the substrate concentration at which the rate is half of its maximum. `CCCC(=O)Oc1ccc([N+](=O)[O-])cc1` [p-nitrophenyl butyrate]: the Km was 92 ± 1.2 µM with EstSP1 [1] and 249 ± 7.8 µM with EstSP1 [2].
